Experiment [1] has as its system broad spectrum of microorganisms. The note with it: background statement; cited from earlier work.
Experiment [2] concerns P. aeruginosa ATCC 15442 biofilm. In words: Reduction of P. aeruginosa biofilm at different exposure times (ASTM E2562-12 / E2871-12). Format: cell-based, Pseudomonas aeruginosa ATCC 15442. The note with it: 50 ppm PFA for 15 min to 3 hours vs 200 ppm POAA for 3 hours. The procedure:
Reduction of P. aeruginosa Biofilm Using Different Exposure Times of Peroxyformic Acid. P. aeruginosa ATCC 15442 biofilm was grown on the surface of 24 polycarbonate coupons following ASTM method E2562-12: Standard Test Method for Quantification of Pseudomonas aeruginosa Biofilm Grown with High Shear and Continuous Flow using CDC Biofilm Reactor. After 48 hours of biofilm establishment, the coupons were removed from the reactor and placed into individual centrifuge tubes. Three coupons per test condition were tested for disinfectant efficacy using ASTM method E2871-12: Standard Test Method for Evaluating Disinfectant Efficacy against Pseudomonas aeruginosa Biofilm Grown in CDC Biofilm Reactor using Single Tube Method. Sets of three coupons were exposed to 4 mL of 50 ppm PFA for exposure times of 15 minutes, 30 minutes, 1 hour, 2 hours and 3 hours, while coupons treated with 200 ppm POAA were exposed for 3 hours only. […] This was followed with a series of vortexing and sonicating steps to remove any biofilm from the coupon surface into the solution for plating and enumeration.

The subject of experiment [3] is Pseudomonas aeruginosa ATCC 15442. In words: Biocidal performance of performic acid, log reduction in synthetic hard water. The following applies: 0.5, 1.0, 2.0 ppm PFA; 10 minutes and 4 hours contact; 25° C. Format: cell-based. Here is the method:
Additional biocidal performance of performic acid was evaluated for log reduction of Pseudomonas aeruginosa as shown in Table 2.

The next experiment relates to Pseudomonas biofilm. Nature of the experiment: Pseudomonas biofilm on polycarbonate coupons, PFA compared with another peroxyacid. Format: cell-based, Pseudomonas aeruginosa. The note with it: 50 ppm PFA vs 200 ppm PAA, hard water pH 7.71, 3 hrs exposure. The procedure: Additional biocidal performance of performic acid was evaluated for log reduction of Pseudomonas aeruginosa in comparison to another peroxyacid. A Pseudomonas biofilm was treated with 50 ppm active of PFA and compared to efficacy treated with 200 ppm PAA. Pseudomonas biofilms were grown in a CDC biofilm reactor on a poly carbonate coupons. Appropriate concentration of the treatment substance were diluted in hard water at pH 7.71 diluent. Test chemicals were exposed for 3 hrs after which they were treated with 16 mLs of thiosulfate to neutralize any oxidants. The untreated control and treated Pseudomonas were plated on a TGE media and incubated at 35° C. for 48 hrs. A […] reduction was monitored by colony counting of Pseudomonas on plates.

Experiment [4] concerns biofilm fouling of CO2 scrubbers. Nature of the experiment: Field test of CO2 scrubbers in an ethanol fermentation plant. The note with it: 30 minute treatment at 75-100 ppm PFA, ambient temperature, 80 gallons per minute. Here is the method:
Removal and/or prevention of biofilm fouling of CO2 scrubbers was tested with peroxyformic acid. Such scrubbers were evaluated in an ethanol fermentation plant which conventionally employs CIP cleaning process with hot caustic recirculated through the system every few weeks to clean any biofilm which has accumulated since the prior CIP cleaning cycle. This problem to be solved is the prevention of biofilm in the systems instead of removal of the biofilm after the same has been formed. The prevention of biofilm is more desirable than removal, as biofilm scuffs off and undesirably plugs lines within the system and in an fermentation facility the stream of reclaimed ethanol that goes back into the process may undesirably carry microbes from the biofilm. As a result, the use of performic acid was compared to the conventional CIP cleaning for efficacy. […]

As to `CC(=O)OO` [Peracetic acid], in experiment [1], the “concentration at which it is a good biocide” value is on record as “greater than 80 part per million”.
For the molecule `O=COO` [peroxyformic acid], the “anti-biofilm efficacy compared with POAA (in words)” value in experiment [2] is “greater anti-biofilm efficacy with shorter exposure time and lower concentrations than POAA”. In experiment [3], the “biocidal efficacy (in words)” value was “beneficially efficacy”. In the experiment with Pseudomonas biofilm, the “reduction in Pseudomonas aeruginosa compared with peracetic acid (in words)” value is listed as “substantially increased reduction in Pseudomonas aeruginosa”. For the same molecule, the “biofilm formation in CO2 scrubbers (in words)” value in experiment [4] was “biofilm did not form”.
